Laboratory results published in patent US11427567B2, “Imidazolyl pyrimidinylamine compounds as CDK2 inhibitors” (Incyte Corporation, priority 2019, dated 2022).

The compounds below were run against CDK2/Cyclin E1 (Homo sapiens (Human), UniProt P24941) (assay: CDK2/Cyclin E1 HTRF enzyme activity assay (Example A)). Conditions: 1 mM ATP.
Assay type: biochemical
Experimental: Assays were conducted in white 384-well polystyrene plates in a final reaction volume of 8 μL. […] HTRF signals were read after 1 hour at room temperature on a PHERAstar FS plate reader (BMG Labtech). Data was analyzed with IDBS XLFit and GraphPad Prism 5.0 software using a three or four parameter dose response curve to determine IC50 for each compound.

Structure (SMILES) | IC50 [nM]
CS(=O)(=O)N1CCC(Nc2ncc(C(F)(F)F)c(-c3cn(-c4ccnc(C#N)c4Cl)cn3)n2)CC1 [Example 307, 3-Chloro-4-(4-(2-((1-(methylsulfonyl)piperidin-4-yl)amino)-5-(trifluoromethyl)pyrimidin-4-yl)-1H-imidazol-1-yl)picolinonitrile] | ≤ 50
CS(=O)(=O)N1CC[C@H](Nc2ncc(C(F)(F)F)c(-c3cn(-c4ccnc(C#N)c4Cl)cn3)n2)[C@H](F)C1 [Example 308, 3-Chloro-4-(4-(2-(((3R,4S)-3-fluoro-1-(methylsulfonyl)piperidin-4-yl)amino)-5-(trifluoromethyl)pyrimidin-4-yl)-1H-imidazol-1-yl)picolinonitrile] | ≤ 50
Cc1nc(-c2nc(NC3CCN(S(C)(=O)=O)CC3)ncc2C(F)(F)F)cn1-c1ccnc(C#N)c1F [Example 309, 3-Fluoro-4-(2-methyl-4-(2-((1-(methylsulfonyl)piperidin-4-yl)amino)-5-(trifluoromethyl)pyrimidin-4-yl)-1H-imidazol-1-yl)picolinonitrile] | ≤ 50
Cc1nc(-c2nc(N[C@H]3CCN(S(C)(=O)=O)C[C@H]3F)ncc2C(F)(F)F)cn1-c1ccnc(C#N)c1F [Example 310, 3-Fluoro-4-(4-(2-(((3R,4S)-3-fluoro-1-(methylsulfonyl)piperidin-4-yl)amino)-5-(trifluoromethyl)pyrimidin-4-yl)-2-methyl-1H-imidazol-1-yl)picolinonitrile] | ≤ 50
COc1nccc(-n2cc(-c3nc(N[C@H]4CCN(S(C)(=O)=O)C[C@H]4F)ncc3C(F)(F)F)nc2C)c1F [Example 311, N-((3R,4S)-3-Fluoro-1-(methylsulfonyl)piperidin-4-yl)-4-(1-(3-fluoro-2-methoxypyridin-4-yl)-2-methyl-1H-imidazol-4-yl)-5-(trifluoromethyl)pyrimidin-2-amine] | ≤ 50
COc1nccc(-n2cnc(-c3nc(NC4CCN(S(C)(=O)=O)CC4)ncc3C(F)(F)F)c2)c1C [Example 312, 4-(1-(2-Methoxy-3-methylpyridin-4-yl)-1H-imidazol-4-yl)-N-(1-(methylsulfonyl)piperidin-4-yl)-5-(trifluoromethyl)pyrimidin-2-amine] | ≤ 50
Cc1nccc(-n2cc(-c3nc(N[C@H]4CCN(S(C)(=O)=O)C[C@H]4F)ncc3C(F)(F)F)nc2C)c1F [Example 313, N-((3R,4S)-3-Fluoro-1-(methylsulfonyl)piperidin-4-yl)-4-(1-(3-fluoro-2-methylpyridin-4-yl)-2-methyl-1H-imidazol-4-yl)-5-(trifluoromethyl)pyrimidin-2-amine] | ≤ 50
COc1nccc(-n2cc(-c3nc(NC4CCN(S(C)(=O)=O)CC4)ncc3C(F)(F)F)nc2C)c1F [Example 314, 4-(1-(3-Fluoro-2-methoxypyridin-4-yl)-2-methyl-1H-imidazol-4-yl)-N-(1-(methylsulfonyl)piperidin-4-yl)-5-(trifluoromethyl)pyrimidin-2-amine] | ≤ 50
CCN1CCN(c2nccc(-n3cnc(-c4nc(NC5CCN(S(C)(=O)=O)CC5)ncc4C(F)(F)F)c3)c2C#N)CC1 [Example 315, 2-(4-Ethylpiperazin-1-yl)-4-(4-(2-((1-(methylsulfonyl)piperidin-4-yl)amino)-5-(trifluoromethyl)pyrimidin-4-yl)-1H-imidazol-1-yl)nicotinonitrile] | ≤ 50
CN1CCN(c2nccc(-n3cnc(-c4nc(NC5CCN(S(C)(=O)=O)CC5)ncc4C(F)(F)F)c3)c2C#N)CC1 [Example 316, 2-(4-Methylpiperazin-1-yl)-4-(4-(2-((1-(methylsulfonyl)piperidin-4-yl)amino)-5-(trifluoromethyl)pyrimidin-4-yl)-1H-imidazol-1-yl)nicotinonitrile] | ≤ 50
CS(=O)(=O)N1CCC(Nc2ncc(C(F)(F)F)c(-c3cn(-c4ccnc(N5CCOCC5)c4C#N)cn3)n2)CC1 [Example 317, 4-(4-(2-((1-(Methylsulfonyl)piperidin-4-yl)amino)-5-(trifluoromethyl)pyrimidin-4-yl)-1H-imidazol-1-yl)-2-morpholinonicotinonitrile] | ≤ 50
